# Measurements: patent US20260070945A1, “MACROCYCLIC IMMUNOMODULATORS” (Bristol-Myers Squibb Company, priority 2022, published 2026)
# *1 amine or outer side, *2 acyl side, *3 side chain or, on linkers, in order; H or OH if unused. Where a SMILES comes first, the peptide text is derived from it. Bridges are numbered along the chain shown (N, C = ends). [ ]: non-standard residue; d: D form. The star is where a group is joined. ξ: configuration not given here. Phe(3-CF3) = N[C@@H](Cc1cccc(C(F)(F)F)c1)C(=O)O; Phe(4-COOH) = N[C@@H](Cc1ccc(C(=O)O)cc1)C(=O)O; Bip = N[C@@H](Cc1ccc(-c2ccccc2)cc1)C(=O)O; NH(CH2)14COOH = O=C(O)CCCCCCCCCCCCCCN*; Phe(3-Me) = Cc1cccc(C[C@H](N)C(=O)O)c1; γGlu = O=C(O)[C@H](CCC(=O)[*:2])N[*:1]; Abu(3S-NH2) = C[C@H](N)[C@H](N)C(=O)O; NH(CH2)12COOH = O=C(O)CCCCCCCCCCCCN*; Val(3-OH) = CC(C)(O)[C@H](N)C(=O)O; hArg = N=C(N)NCCCC[C@H](N)C(=O)O; 4Pal = N[C@@H](Cc1ccncc1)C(=O)O; Cha = N[C@@H](CC1CCCCC1)C(=O)O; Cit = NC(=O)NCCC[C@H](N)C(=O)O; Ile(3ξ) = CCC(C)[C@H](N)C(=O)O; Thr(3ξ) = CC(O)[C@H](N)C(=O)O; Carboxymethyl = O=C(O)C*; NMeA = CN[C@@H](C)C(=O)O; Orn = NCCC[C@H](N)C(=O)O; Aun = NCCCCCCCCCCC(=O)O; Dab = NCC[C@H](N)C(=O)O; AEEA = NCCOCCOCC(=O)O; Sar = CNCC(=O)O
# Target: T1, PD-1/PD-L1 interaction (PE-labeled human PD-L1-Ig binding to Jurkat cell line over-expressing human PD-1) (Homo sapiens, UniProt Q15116)
# T1 construct: expressed in transfected cells; host or cells: Jurkat
# T1 sequence (Q15116 25-288): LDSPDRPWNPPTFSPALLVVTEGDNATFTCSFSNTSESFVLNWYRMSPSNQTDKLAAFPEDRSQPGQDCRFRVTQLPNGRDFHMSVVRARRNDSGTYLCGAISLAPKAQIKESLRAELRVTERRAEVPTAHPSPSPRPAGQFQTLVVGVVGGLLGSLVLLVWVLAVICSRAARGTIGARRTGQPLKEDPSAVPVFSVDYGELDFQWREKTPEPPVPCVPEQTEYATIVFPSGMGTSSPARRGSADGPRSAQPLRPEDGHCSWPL
# Test: Jurkat-PD-1 Cell Binding High-Content Screening Assay (CBA)
# Settings: Jurkat-hPD-1 cells, PE-labeled PD-L1-Ig 20 nM final; read-out: Jurkat HPD1 PDL1 IC50
# Method in brief: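 High-content imaging read-out of PE-PD-L1-Ig binding (20 nM final, 1 h) to Jurkat-hPD-1 cells, after 2 h compound exposure at 37 °C in DMEM with 10% FCS. Nuclei counterstained with Hoechst 33342 after paraformaldehyde fixation.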
row,SMILES,IC50
1,CC(C)C[C@H]1NC(=O)[C@H](C)N(C)C(=O)[C@H](CCC(N)=O)NC(=O)[C@H](Cc2ccc(-c3ccccc3)cc2)NC(=O)[C@H](Cc2ccc(C(=O)O)cc2)NC(=O)[C@H](Cc2cccc(C(F)(F)F)c2)NC(=O)[C@H](CC(=O)O)NC(=O)[C@H](Cc2ccc(OCC(=O)O)cc2)NC(=O)[C@H]([C@H](C)N)NC(=O)CSC[C@@H](C(=O)N[C@@H](CCN)C(=O)NCCCCCCCCCCCCC(=O)O)NC(=O)[C@H](Cc2c[nH]cn2)NC(=O)[C@H](C(C)(C)O)NC(=O)[C@H](CC2CCCCC2)NC(=O)[C@H](CCN)NC1=O [Example 1192] ({CH2CO}-[Abu(3S-NH2)]Y(Carboxymethyl)D[Phe(3-CF3)][Phe(4-COOH)][Bip]Q[NMeA][dL][Dab][Cha][Val(3-OH)]HC[Dab]-{NH(CH2)12COOH}; thioether N-14),17.5 nM
2,CC(C)C[C@@H]1NC(=O)[C@H](Cc2c[nH]c3ccccc23)NC(=O)[C@H](CC(=O)O)NC(=O)[C@H](Cc2ccc(C(=O)O)cc2)NC(=O)[C@H](Cc2ccc(OCC(=O)O)cc2)NC(=O)CSC[C@@H](C(=O)NCC(=O)N[C@@H](CC(=O)O)C(=O)NCC(=O)NCCCCCCCCCCC(=O)O)NC(=O)[C@H](CO)NC(=O)[C@H](C(C)C)NC(=O)[C@H](CC2CCCCC2)NC(=O)[C@H](CCN)NC(=O)[C@@H](CC(C)C)NC(=O)[C@H](C)N(C)C(=O)[C@H](C(C)C)NC(=O)[C@H](Cc2ccc(-c3ccccc3)cc2)NC1=O [Example 1033] ({CH2CO}-Y(Carboxymethyl)[Phe(4-COOH)]DWL[Bip]V[NMeA][dL][Dab][Cha]VSCGDG[Aun]-OH; thioether N-14),20.5 nM
3,COC[C@@H]1NC(=O)CSC[C@@H](C(=O)N[C@@H](CCN)C(=O)NCCOCCOCC(=O)N[C@@H](CCC(=O)NCCOCCOCC(=O)NCCCCCCCCCCCCC(=O)O)C(=O)O)NC(=O)[C@H](CCCCNC(C)=O)NC(=O)[C@H](C(C)(C)O)NC(=O)[C@H](CC2CCCCC2)NC(=O)[C@H](CCN)NC(=O)[C@@H](CC(C)C)NC(=O)[C@H](C)N(C)C(=O)[C@H](CCC(N)=O)NC(=O)[C@H](Cc2ccc(-c3ccccc3)cc2)NC(=O)[C@H](Cc2ccc(C(=O)O)cc2)NC(=O)[C@H](Cc2cccc(C(F)(F)F)c2)NC(=O)[C@H](CC(=O)O)NC(=O)[C@H](Cc2ccc(OCC(=O)O)cc2)NC1=O [Example 1165] ({CH2CO}-S(Me)Y(Carboxymethyl)D[Phe(3-CF3)][Phe(4-COOH)][Bip]Q[NMeA][dL][Dab][Cha][Val(3-OH)]K(Ac)C[Dab][AEEA][γGlu][AEEA]-{NH(CH2)12COOH}; thioether N-14),21.8 nM
4,CCC(C)[C@@H]1NC(=O)[C@H](Cc2ccc(-c3ccccc3)cc2)NC(=O)[C@H](Cc2ccc(OCC(=O)O)cc2)NC(=O)[C@H](Cc2cccc(C)c2)NC(=O)[C@H](CC(=O)O)NC(=O)[C@H](Cc2ccc(C(=O)O)cc2)NC(=O)[C@H](Cc2ccncc2)NC(=O)CSC[C@@H](C(=O)N[C@@H](CCN)C(=O)NCCOCCOCC(=O)NCCCCCCCCCCC(=O)O)NC(=O)[C@H](CCCN)NC(=O)[C@H](C(C)C)NC(=O)[C@H](CC2CCCCC2)NC(=O)[C@H](CCN)NC(=O)[C@@H](CC(C)C)NC(=O)[C@H](C)N(C)C1=O (stereo partly drawn) [Example 1407] ({CH2CO}-[4Pal][Phe(4-COOH)]D[Phe(3-Me)]Y(Carboxymethyl)[Bip][Ile(3ξ)][NMeA][dL][Dab][Cha]V[Orn]C[Dab][AEEA][Aun]-OH; thioether N-14),89.9 nM

# Second part, the compound after the results:
row,IC50,SMILES
1,9.3 nM,Cc1cccc(C[C@@H]2NC(=O)[C@H](CC(=O)O)NC(=O)[C@H](Cc3ccc(OCC(=O)O)cc3)NC(=O)[C@H](C(C)O)NC(=O)CSC[C@@H](C(=O)N[C@@H](CCN)C(=O)NCCCCCCCCCCC(=O)O)NC(=O)[C@H](C(C)O)NC(=O)[C@H](C(C)C)NC(=O)[C@H](CC3CCCCC3)NC(=O)[C@H](CCN)NC(=O)[C@@H](CC(C)C)NC(=O)[C@H](C)N(C)C(=O)[C@H](Cc3ccc(OCC(=O)O)cc3)NC(=O)[C@H](Cc3ccc(-c4ccccc4)cc3)NC(=O)[C@H](Cc3ccc(C(=O)O)cc3)NC2=O)c1 (stereo partly drawn) [Example 2347] ({CH2CO}-[Thr(3ξ)]Y(Carboxymethyl)D[Phe(3-Me)][Phe(4-COOH)][Bip]Y(Carboxymethyl)[NMeA][dL][Dab][Cha]V[Thr(3ξ)]C[Dab][Aun]-OH; thioether N-14)
2,25.8 nM,Cc1cccc(C[C@@H]2NC(=O)[C@H](CC(=O)O)NC(=O)[C@H](Cc3ccc(OCC(=O)O)cc3)NC(=O)[C@H](CC(N)=O)NC(=O)CSC[C@@H](C(=O)N(C)CC(=O)NCCCCCCCCCCC(=O)O)NC(=O)[C@H](CCCNC(N)=O)NC(=O)[C@H](C(C)C)NC(=O)[C@H](CC3CCCCC3)NC(=O)[C@H](CCN)NC(=O)[C@@H](CC(C)C)NC(=O)[C@H](C)N(C)C(=O)[C@H](C(C)C)NC(=O)[C@H](Cc3ccc(-c4ccccc4)cc3)NC(=O)[C@H](C(C)C)NC2=O)c1 [Example 2261] ({CH2CO}-NY(Carboxymethyl)D[Phe(3-Me)]V[Bip]V[NMeA][dL][Dab][Cha]V[Cit]C[Sar][Aun]-OH; thioether N-14)
3,290 nM,CC(C)C[C@@H]1NC(=O)[C@H](Cc2c[nH]c3ccccc23)NC(=O)[C@H](CC(=O)O)NC(=O)[C@H](Cc2ccc(OCC(=O)O)cc2)NC(=O)[C@H](CCCCNC(=N)N)NC(=O)CSC[C@@H](C(=O)N[C@@H](C)C(=O)N[C@@H](CCCCN)C(=O)NCCCCCCCCCCCCCCC(=O)O)NC(=O)[C@H](CO)NC(=O)[C@H](C(C)C)NC(=O)[C@H](CC(C)C)NC(=O)[C@H](Cc2c[nH]cn2)NC(=O)[C@@H](CC(C)C)NC(=O)[C@H](C)N(C)C(=O)[C@H](C(C)C)NC(=O)[C@H](Cc2ccc(-c3ccccc3)cc2)NC1=O [Example 2003] ({CH2CO}-[hArg]Y(Carboxymethyl)DWL[Bip]V[NMeA][dL]HLVSCAK-{NH(CH2)14COOH}; thioether N-14)

# Same assay, conditions: PE-labeled PD-L1-Ig 20 nM final, Jurkat-hPD-1 cells; read-out: Jurkat HPD1 PDL1 IC50
row,IC50,SMILES
1,108 nM,Cc1cccc(C[C@@H]2NC(=O)[C@H](CC(=O)O)NC(=O)[C@H](Cc3ccc(C(=O)O)cc3)NC(=O)[C@H](Cc3ccncc3)NC(=O)CSC[C@@H](C(=O)N[C@@H](CCN)C(=O)NCCOCCOCC(=O)NCCOCCOCC(=O)NCCCCCCCCCCC(=O)O)NC(=O)[C@H](CCC(=O)O)NC(=O)[C@H](C(C)(C)O)NC(=O)[C@H](CC3CCCCC3)NC(=O)[C@H](CCN)NC(=O)[C@@H](CC(C)C)NC(=O)[C@H](C)N(C)C(=O)[C@H](Cc3ccc(C(=O)O)cc3)NC(=O)[C@H](Cc3ccc(-c4ccccc4)cc3)NC(=O)[C@H](Cc3ccc(C(=O)O)cc3)NC2=O)c1 [Example 2495] ({CH2CO}-[4Pal][Phe(4-COOH)]D[Phe(3-Me)][Phe(4-COOH)][Bip][Phe(4-COOH)][NMeA][dL][Dab][Cha][Val(3-OH)]EC[Dab][AEEA][AEEA][Aun]-OH; thioether N-14)
2,2.8 nM,CC(=O)NCCCC[C@@H]1NC(=O)[C@H](C(C)C)NC(=O)[C@H](CC2CCCCC2)NC(=O)[C@H](CCN)NC(=O)[C@@H](CC(C)C)NC(=O)[C@H](C)N(C)C(=O)[C@H](CCC(N)=O)NC(=O)[C@H](Cc2ccc(-c3ccccc3)cc2)NC(=O)[C@H](Cc2ccc(C(=O)O)cc2)NC(=O)[C@H](Cc2cccc(C(F)(F)F)c2)NC(=O)[C@H](CC(=O)O)NC(=O)[C@H](Cc2ccc(OCC(=O)O)cc2)NC(=O)[C@H](Cc2ccc(OCC(=O)O)cc2)NC(=O)CSC[C@@H](C(=O)N[C@@H](CCN)C(=O)NCCOCCOCC(=O)NCCCCCCCCCCC(=O)O)NC1=O [Example 2598] ({CH2CO}-Y(Carboxymethyl)Y(Carboxymethyl)D[Phe(3-CF3)][Phe(4-COOH)][Bip]Q[NMeA][dL][Dab][Cha]VK(Ac)C[Dab][AEEA][Aun]-OH; thioether N-14)
